Series [1] deals with T1, LRRK2 WT (Homo sapiens, UniProt Q5S007). Briefly: Cell-based NanoBRET target engagement assay in HEK293 cells transfected with LRRK2 WT-NanoLuc fusion vector. Also on record: expressed in transfected cells; host or cells: HEK293 (ATCC). The settings on record: compound treatment 1 h. In outline:
(§1)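 HEK293 cells transiently transfected with NanoLuc-fused LRRK2 WT or G2019S (1 μg) plus carrier DNA, treated 1 h with compound (10-dose, 3-fold dilution from 1 μM). Target engagement read by NanoBRET; IC50 fitted only when signal at top concentration was below 5500.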
For orientation: BRET reads energy transfer from a luciferase to a nearby fluorophore.
Target sequence in this assay (Q5S007 whole entry, the tested form may be a part): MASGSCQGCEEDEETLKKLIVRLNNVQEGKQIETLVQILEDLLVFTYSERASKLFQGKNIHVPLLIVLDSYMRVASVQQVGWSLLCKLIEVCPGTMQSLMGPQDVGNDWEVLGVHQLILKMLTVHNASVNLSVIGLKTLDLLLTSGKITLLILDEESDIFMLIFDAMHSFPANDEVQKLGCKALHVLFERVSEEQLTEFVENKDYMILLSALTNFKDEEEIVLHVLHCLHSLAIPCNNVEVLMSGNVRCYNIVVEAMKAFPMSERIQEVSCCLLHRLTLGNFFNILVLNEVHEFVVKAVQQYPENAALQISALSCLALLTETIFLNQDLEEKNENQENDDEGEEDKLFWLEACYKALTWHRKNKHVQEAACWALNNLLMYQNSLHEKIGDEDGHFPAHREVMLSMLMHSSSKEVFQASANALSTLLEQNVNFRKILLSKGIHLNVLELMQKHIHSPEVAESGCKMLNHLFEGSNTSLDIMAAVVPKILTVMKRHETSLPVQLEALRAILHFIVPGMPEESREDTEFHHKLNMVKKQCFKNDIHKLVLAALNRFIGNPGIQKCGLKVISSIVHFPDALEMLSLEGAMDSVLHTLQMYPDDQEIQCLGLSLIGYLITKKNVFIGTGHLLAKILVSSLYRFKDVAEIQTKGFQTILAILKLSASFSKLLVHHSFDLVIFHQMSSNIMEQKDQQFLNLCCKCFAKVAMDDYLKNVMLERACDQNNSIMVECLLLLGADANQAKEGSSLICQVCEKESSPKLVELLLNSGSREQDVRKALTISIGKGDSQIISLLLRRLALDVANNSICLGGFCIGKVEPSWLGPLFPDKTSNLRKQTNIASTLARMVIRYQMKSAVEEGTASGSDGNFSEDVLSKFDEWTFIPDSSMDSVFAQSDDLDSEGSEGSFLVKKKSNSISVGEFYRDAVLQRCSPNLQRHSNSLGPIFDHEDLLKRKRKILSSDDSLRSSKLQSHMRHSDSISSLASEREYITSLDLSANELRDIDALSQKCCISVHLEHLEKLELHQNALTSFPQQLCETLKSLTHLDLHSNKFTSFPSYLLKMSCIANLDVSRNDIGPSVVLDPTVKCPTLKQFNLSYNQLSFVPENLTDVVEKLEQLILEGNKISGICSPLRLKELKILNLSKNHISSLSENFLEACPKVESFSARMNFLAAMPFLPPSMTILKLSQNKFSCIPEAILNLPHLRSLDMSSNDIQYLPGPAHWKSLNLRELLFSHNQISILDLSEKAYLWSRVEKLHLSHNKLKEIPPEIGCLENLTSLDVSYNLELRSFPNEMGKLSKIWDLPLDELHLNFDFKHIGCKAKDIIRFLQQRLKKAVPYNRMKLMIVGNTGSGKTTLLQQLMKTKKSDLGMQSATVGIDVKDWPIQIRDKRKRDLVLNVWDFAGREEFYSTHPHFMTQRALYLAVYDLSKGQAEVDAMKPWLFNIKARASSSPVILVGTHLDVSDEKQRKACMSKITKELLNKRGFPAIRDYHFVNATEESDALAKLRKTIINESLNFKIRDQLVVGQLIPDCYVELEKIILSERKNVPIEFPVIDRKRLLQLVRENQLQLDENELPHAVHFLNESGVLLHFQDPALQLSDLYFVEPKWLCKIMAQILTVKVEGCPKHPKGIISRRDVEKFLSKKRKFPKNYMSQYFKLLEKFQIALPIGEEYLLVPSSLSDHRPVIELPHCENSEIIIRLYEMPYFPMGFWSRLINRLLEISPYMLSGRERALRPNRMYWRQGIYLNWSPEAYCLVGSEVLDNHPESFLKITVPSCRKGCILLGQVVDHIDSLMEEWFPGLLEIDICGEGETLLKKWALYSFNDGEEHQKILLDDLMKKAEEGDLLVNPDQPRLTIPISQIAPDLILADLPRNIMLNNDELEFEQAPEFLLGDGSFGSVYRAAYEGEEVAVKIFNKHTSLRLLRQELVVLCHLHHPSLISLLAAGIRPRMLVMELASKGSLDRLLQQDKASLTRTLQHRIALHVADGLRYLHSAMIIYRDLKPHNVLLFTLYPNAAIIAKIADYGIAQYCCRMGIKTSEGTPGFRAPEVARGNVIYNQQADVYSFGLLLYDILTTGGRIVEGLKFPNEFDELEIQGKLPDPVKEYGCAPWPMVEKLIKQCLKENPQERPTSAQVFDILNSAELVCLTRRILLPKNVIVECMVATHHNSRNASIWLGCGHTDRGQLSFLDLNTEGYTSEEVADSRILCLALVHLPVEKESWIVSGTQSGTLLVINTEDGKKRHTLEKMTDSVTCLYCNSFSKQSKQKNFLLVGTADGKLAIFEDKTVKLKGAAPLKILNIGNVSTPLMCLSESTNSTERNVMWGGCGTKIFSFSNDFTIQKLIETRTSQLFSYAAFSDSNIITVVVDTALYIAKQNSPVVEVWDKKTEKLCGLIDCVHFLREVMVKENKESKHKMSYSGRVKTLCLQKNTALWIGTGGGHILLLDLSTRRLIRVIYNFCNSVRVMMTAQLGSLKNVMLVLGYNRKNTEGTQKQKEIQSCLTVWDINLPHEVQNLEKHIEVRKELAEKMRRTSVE

In series [2] the target is T1, LRRK2 WT. The experiment in a line: Enzymatic activity inhibition against LRRK2 WT (ADP-Glo kinase assay, LRRKtide substrate). The settings on record: recombinant LRRK2 WT 36 nM, ATP, 1 h at rt, average Ki. Format: biochemical. Details: purchased SignalChem Biotech, Inc. L10-11G-10. As for the experimental part:
Example B. Primary Assays Used to Determine Potency of the LRRK2 Inhibition
Assay for Determining Enzymatic Activity Inhibition Against LRRK2 WT.
Compound activity was determined using recombinant LRRK2 WT protein (SignalChem Biotech, Inc., Cat #L10-11G-10) and LRRKtide substrate (SignalChem Biotech, Inc., Cat #L10-58) in an in vitro enzymatic reaction. The enzymatic reaction was carried out in assay buffer (40 mM TRIS-HCl pH 7.4, 20 mM MgCl2, 0.05 mM DTT, 0.1 mg/mL BSA). The compounds were dispensed into a 384 well Diamond Well Plate (Axigen, Cat #P-384-120SQ-C-S) using the Biomek FX liquid handling system at 80× solutions of compounds in DMSO. The 2× Protein-Substrate mix (final concentration 36 nM of LRRK2 WT and 0.8 μg/μL of LRRKtide) was prepared in the 1× Assay buffer and 4 μL of mixture per well was added into the 384-well white Reaction plate with NBS (Corning, Cat #CLS4513). The 4 μL of LRRKtide substrate w/o LRRK2 WT in the 1× buffer was used for a negative control. Plates were centrifuged for 1 min at 200 g. Next the compounds were added to Reaction plate using Biomek station via following steps: 1 μL of 80× compounds (in DMSO) were mixed thoroughly with 39 μL of 2×10 μM ATP in Assay Buffer, then 4 μL of this mixture was added to Reaction plate with 4 μL of Protein-Substrate mix. Plates were centrifuged for 1 min at 200 g and incubated for 1 hour at rt. Then, 4 μL per well of ADP-Glo reagent (Promega, ADP-Glo™ Kinase Assay, Cat #V9102) was added. Plates were incubated for 30 minutes at rt. Then, 8 μL per well of Kinase detection reagent (Promega, ADP-Glo™ Kinase Assay, Cat #V9102) was added and the luminescence signal was measured with a microplate reader. The % inhibition was then used to calculate the Ki values. The average Ki values are shown in Table B, wherein “A” corresponds to Ki<10.0 nM, “B” corresponds to 10.0 nM K Ki<20.0 nM, “C” 20.0 nM K Ki<50.0 nM, “D” corresponds to 50.0 nM K Ki<100.0 nM and “E” corresponds to Ki>100.0 nM.
(ADP-Glo turns the ADP formed in a reaction into a luminescent signal.)
Target sequence in this assay (Q5S007 970-2527 limits assumed): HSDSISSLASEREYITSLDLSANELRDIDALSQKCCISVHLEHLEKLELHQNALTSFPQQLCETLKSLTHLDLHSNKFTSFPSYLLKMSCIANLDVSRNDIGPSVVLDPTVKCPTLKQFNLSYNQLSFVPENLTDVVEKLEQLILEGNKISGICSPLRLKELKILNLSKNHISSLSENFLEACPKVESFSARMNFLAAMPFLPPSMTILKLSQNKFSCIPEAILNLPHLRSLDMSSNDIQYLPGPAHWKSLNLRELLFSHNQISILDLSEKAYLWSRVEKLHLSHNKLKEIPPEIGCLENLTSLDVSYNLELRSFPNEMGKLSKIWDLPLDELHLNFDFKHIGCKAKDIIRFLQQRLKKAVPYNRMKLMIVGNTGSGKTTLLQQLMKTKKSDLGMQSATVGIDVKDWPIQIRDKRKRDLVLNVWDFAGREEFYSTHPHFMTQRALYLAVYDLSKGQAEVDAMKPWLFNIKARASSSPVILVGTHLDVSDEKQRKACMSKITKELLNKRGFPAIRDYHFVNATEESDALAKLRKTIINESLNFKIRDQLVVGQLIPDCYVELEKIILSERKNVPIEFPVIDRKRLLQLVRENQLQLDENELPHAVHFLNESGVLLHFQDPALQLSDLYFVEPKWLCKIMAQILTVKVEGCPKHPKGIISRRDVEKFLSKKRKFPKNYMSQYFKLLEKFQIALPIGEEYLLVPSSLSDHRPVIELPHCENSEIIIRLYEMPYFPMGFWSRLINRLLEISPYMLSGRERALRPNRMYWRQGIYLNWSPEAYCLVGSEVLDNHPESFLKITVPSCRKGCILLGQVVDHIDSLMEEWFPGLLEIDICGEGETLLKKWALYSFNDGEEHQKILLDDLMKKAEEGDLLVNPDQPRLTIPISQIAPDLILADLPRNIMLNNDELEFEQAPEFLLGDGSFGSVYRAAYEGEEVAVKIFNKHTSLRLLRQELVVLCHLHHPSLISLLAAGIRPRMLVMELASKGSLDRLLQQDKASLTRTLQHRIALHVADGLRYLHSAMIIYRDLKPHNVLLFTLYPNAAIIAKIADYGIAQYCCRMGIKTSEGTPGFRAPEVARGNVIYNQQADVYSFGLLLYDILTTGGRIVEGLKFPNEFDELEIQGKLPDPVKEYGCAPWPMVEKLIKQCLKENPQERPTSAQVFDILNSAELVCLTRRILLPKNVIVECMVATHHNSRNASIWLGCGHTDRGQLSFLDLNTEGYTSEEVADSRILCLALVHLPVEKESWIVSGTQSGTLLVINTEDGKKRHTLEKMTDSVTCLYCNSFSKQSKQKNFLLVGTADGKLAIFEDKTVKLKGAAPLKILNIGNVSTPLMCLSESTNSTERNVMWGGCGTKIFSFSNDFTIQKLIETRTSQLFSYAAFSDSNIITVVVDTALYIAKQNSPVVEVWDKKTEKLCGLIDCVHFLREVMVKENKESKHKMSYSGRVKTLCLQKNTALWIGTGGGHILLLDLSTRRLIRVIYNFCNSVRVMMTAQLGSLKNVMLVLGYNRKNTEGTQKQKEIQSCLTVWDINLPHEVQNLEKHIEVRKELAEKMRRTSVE

Series [3] deals with T2, LRRK2[G2019S] (Homo sapiens, UniProt Q5S007, G2019S). The experiment in a line: Cell-based NanoBRET target engagement assay in HEK293 cells transfected with LRRK2 (G2019S)-NanoLuc fusion vector. The settings on record: compound treatment 1 h. Details: expressed in transfected cells; host or cells: HEK293 (ATCC). The method in brief:
as §1
Target sequence in this assay (Q5S007 whole entry G2019S, the tested form may be a part): as the sequence (Q5S007 whole entry, the tested form may be a part) above, with G2019S counted along it

A short description of series [4]: A549 cytotoxicity assay (CellTiter-Glo). Format: cell-based. To be noted: human, A549 cells, 3 days of incubation. How it is done: Example D. A549 Cytotoxicity Assay Used to Determine Safety of the LRRK2 Inhibitors
A549 (ATCC, CCL-185) cells were seeded at a density of 4000 cells per well in a 384-well clear bottom plate (Greiner Cat #781090) in 45 μL total volume of the complete cell culture medium DMEM (PanEco, Cat #C420, Russia) with 10% FBS (HyClone Cat #SV30160.03). The cells were allowed to adhere overnight at 37° C., 5% CO2. The 500× compounds solutions in DMSO (Sigma Cat #D2650) were prepared in the compounds plate (Diamond Well Plate, Axigen, Cat #P-384-120SQ-C-S) and DMSO as a vehicle control was included. The 1 μL aliquot of 500× compounds (Compounds plate) was added to the 49 μL culture medium in the Dilution plate (Diamond Well Plate, Axigen, Cat #P-384-120SQ-C-S), mixed and then the 5 μL aliquots of the 10× compounds solutions was transferred to cells followed by centrifugation at 100 g for 1 min. Final DMSO concentration was 0.2%. After 3 days of incubation the 10 μL per well of CellTiter-Glo (Promega, CAT #G7572) was added to the cells, plate was centrifuged at 100 g for 1 min. The luminescence signal was detected with CLARIOstar Plus (BMG LABTECH) microplate reader.

Series [5] has as its target T2, LRRK2[G2019S]. Briefly: Enzymatic activity inhibition against LRRK2[G2019S] (ADP-Glo kinase assay, LRRKtide substrate). Format: biochemical. Also on record: purchased SignalChem Biotech, Inc. L10-12GG-10. The settings on record: recombinant LRRK2[G2019S] 36 nM, ATP, 1 h at rt, average Ki. As for the experimental part:
Example A. Primary Assays Used to Determine Potency of the LRRK2 Inhibition
Assay for Determining Enzymatic Activity Inhibition Against LRRK2[G2019S].
Compound activity was determined using recombinant LRRK2[G2019S] protein (SignalChem Biotech, Inc., Cat #L10-12GG-10) and LRRKtide substrate (SignalChem Biotech, Inc., Cat #L10-58) in an in vitro enzymatic reaction. The enzymatic reaction was carried out in assay buffer (40 mM TRIS-HCl pH 7.4, 20 mM MgCl2, 0.05 mM DTT, 0.1 mg/mL BSA). The compounds were dispensed into a 384 well Diamond Well Plate (Axigen, Cat #P-384-120SQ-C-S) using the Biomek FX liquid handling system at the 80× solutions of compounds in DMSO. The 2× Protein-Substrate mix (final concentration 36 nM of LRRK2[G2019S] and 0.8 μg/μL of LRRKtide) was prepared in 1× Assay buffer and 4 μL of mixture per well was added into the 384-well white Reaction plate with NBS (Corning, Cat #CLS4513). The 4 μL of LRRKtide substrate w/o LRRK2[G2019S] in the 1× buffer was used for a negative control. Plates were centrifuged for 1 min at 200 g. Next the compounds were added to the reaction plate using Biomek station via following steps: 1 μL of 80× compounds (in DMSO) were mixed thoroughly with 39 μL of 2×10 μM ATP in Assay Buffer, then 4 μL of this mixture was added to Reaction plate with 4 μL of Protein-Substrate mix. Plates were centrifuged for 1 min at 200 g and incubated for 1 h at rt. Then, 4 μL per well of ADP-Glo reagent (Promega, ADP-Glo™ Kinase Assay, Cat #V9102) was added. Plates were incubated for 30 min at rt. Then, 8 μL per well of Kinase detection reagent (Promega, ADP-Glo™ Kinase Assay, Cat #V9102) was added and the luminescence signal was measured with a microplate reader. The luminescence signal was detected with CLARIOstar Plus (BMG LABTECH) microplate reader. The % inhibition was then used to calculate the Ki values. The average Ki values are shown in Table A, wherein “A” corresponds to Ki<5.0 nM, “B” corresponds to 5.0 nM≤Ki<10.0 nM, “C” 10.0 nM≤Ki<50.0 nM, “D” corresponds to 50.0 nM≤Ki<100.0 nM and “E” corresponds to Ki>100.0 nM.
Target sequence in this assay (Q5S007 970-2527 G2019S limits assumed): as the sequence (Q5S007 970-2527 limits assumed) above, with G1050S counted along it

Bounds are passed on as bounds.

Results on ten compounds are retold here after patent publication US20250248998A1, “LRRK2 Inhibitors” (Brenig Therapeutics, Inc., priority 2022, published 2025).

Broadly, the IC50 is the concentration at which inhibition is half-maximal. Lower therefore signals inhibition by little substance. The Ki is the equilibrium dissociation constant of an inhibitor or competing ligand from its target. One may read the CC50 as the concentration giving 50% cytotoxicity.

In the case of `CC(C)Oc1ccc2[nH]nc(-c3cnnc(N4CCC(O)C4)c3)c2c1` (stereo in doubt) [Compound 2, (R)-1-(5-(5-isopropoxy-1H-indazol-3-yl)pyridazin-3-yl)pyrrolidin-3-ol], the concentration for half-maximal inhibition (IC50) in series [1] and in series [3] was at least 100 nM throughout. Further, the Ki fell in the range of 10 to 20 nM in series [2] and 5 to 10 nM in series [5]. Besides, the CC50 at 3 days in series [4] was over 10000 nM.

With `CC1CCN(c2cc(-c3n[nH]c4ccc(OC(C)C)cc34)cnn2)C1` (centres unmarked) [Compound 3, 5-isopropoxy-3-[6-(3-methylpyrrolidin-1-yl)pyridazin-4-yl]-1H-indazole], the 50% inhibitory concentration (IC50) in series [1] and in series [3] was at least 100 nM throughout. For the same compound, the Ki in series [2] is at most 10 nM; in series [5], at most 5 nM. The compound further registered a CC50 at 3 days in series [4] of over 10000 nM.

`CC(C)Oc1ccc2[nH]nc(-c3cc(N4CCOCC4)c(=O)n(C)n3)c2c1` [Compound 14, 6-(5-isopropoxy-1H-indazol-3-yl)-2-methyl-4-morpholino-pyridazin-3-one]: the IC50 in series [1] and in series [3] was at least 100 nM throughout. For the same compound, the Ki in series [2] is at most 10 nM; in series [5], at most 5 nM. This compound also came in with a half-maximal cytotoxic concentration (CC50) at 3 days in series [4] of over 10000 nM.

As for `Cn1nc(-c2n[nH]c3ccc(OC4(C)CC4)cc23)cc(N2CCOCC2)c1=O` [Compound 27, 2-methyl-6-[5-(1-methylcyclopropoxy)-1H-indazol-3-yl]-4-morpholino-pyridazin-3-one], the IC50 in series [1] and in series [3] was at most 50 nM each time. The Ki in series [2] is at most 10 nM; in series [5], at most 5 nM. In addition, in series [4], the CC50 at 3 days is over 27000 nM.

In the case of `CC(C)Oc1ccc2[nH]nc(-c3cc(N4CCCC4)c(=O)n(C)n3)c2c1` [Compound 44, 6-(5-isopropoxy-1H-indazol-3-yl)-2-methyl-4-pyrrolidin-1-yl-pyridazin-3-one], the concentration for half-maximal inhibition (IC50) in series [1] and in series [3] was at most 50 nM each time. Further, the figures for the inhibition constant Ki in series [2] and in series [5] were at most 10 nM and at most 5 nM, respectively. Also, in series [4], the CC50 at 3 days was over 10000 nM.

For `Cn1nc(-c2n[nH]c3ccc(OC4(C)CC4)cc23)cc(N2CC(C)(C)C3COCC32)c1=O` (centres unmarked) [Compound 48, 4-(3,3-dimethyl-3a,4,6,6a-tetrahydro-2H-furo[3,4-b]pyrrol-1-yl)-2-methyl-6-[5-(1-methylcyclopropoxy)-1H-indazol-3-yl]pyridazin-3-one], the IC50 in series [1] and in series [3] was at most 50 nM each time. For the same compound, the inhibitory constant (Ki) in series [2] is at most 10 nM; in series [5], at most 5 nM. In series [4], this compound had a CC50 at 3 days of over 10000 nM.

Turning to `C[C@@H]1CN(c2cc(-c3n[nH]c4ccc(OC5(C)CC5)cc34)nn(C)c2=O)C[C@H](C)O1` [Compound 50, 4-[(2S,6R)-2,6-dimethylmorpholin-4-yl]-2-methyl-6-[5-(1-methylcyclopropoxy)-1H-indazol-3-yl]pyridazin-3-one], the IC50 in series [1] and in series [3] was at most 50 nM each time. Moreover, the Ki in series [2] was at most 10 nM; in series [5], at most 5 nM. Moreover, in series [4], the CC50 at 3 days is over 10000 nM.

Regarding `Cn1nc(-c2n[nH]c3ccc(OC4(C)CC4)cc23)cc(N2CCOCC3(CC3)C2)c1=O` [Compound 52, 2-methyl-6-[5-(1-methylcyclopropoxy)-1H-indazol-3-yl]-4-(5-oxa-8-azaspiro[2.6]nonan-8-yl)pyridazin-3-one], the 50% inhibitory concentration (IC50) in series [1] and in series [3] was at most 50 nM each time. The figures for the inhibition constant (Ki) in series [2] and in series [5] were at most 10 nM and at most 5 nM, respectively. For the same compound, the CC50 at 3 days in series [4] was over 10000 nM.

Turning to `Cn1nc(-c2n[nH]c3ccc(OC4(C)CC4)cc23)cc(N2CCCC(F)(F)C2)c1=O` [Compound 54, 4-(3,3-difluoro-1-piperidyl)-2-methyl-6-[5-(1-methylcyclopropoxy)-1H-indazol-3-yl]pyridazin-3-one], the half-maximal inhibitory concentration (IC50) in series [1] and in series [3] was at most 50 nM throughout. The Ki in series [2] was at most 10 nM; in series [5] it was at most 5 nM. The CC50 at 3 days in series [4] was over 10000 nM.

Regarding `Cn1nc(-c2n[nH]c3ccc(OC4(C)CC4)cc23)cc(N2CCC3(CCC3)C2)c1=O` [Compound 56, 4-(6-azaspiro[3.4]octan-6-yl)-2-methyl-6-[5-(1-methylcyclopropoxy)-1H-indazol-3-yl]pyridazin-3-one], the concentration for half-maximal inhibition (IC50) in series [1] and in series [3] was at most 50 nM throughout. Besides, the Ki in series [2] is at most 10 nM; in series [5], at most 5 nM. In series [4], this compound yielded a CC50 at 3 days of over 10000 nM.
